Format in all cases: cell-based
The target in data set [1] is T1, Nuclear factor NF-kappa-B complex (Homo sapiens) (UniProt Q00653+P19838+Q04206). The data set is described as follows: Inhibition of NFkappaB in human FRT-Jurkat cells expressing GFP assessed as reduction of TNF expression at 10 uM after 24 hrs by flow cytometry relative to control.
The test system of another data set is Jurkat. The data set is described as follows: Cytotoxicity against human FRT-Jurkat cells assessed as reduction of cell viability by measuring cleaved caspase 3 at 10 uM by flow cytometer.
In data set [2] the target is T1, Nuclear factor NF-kappa-B complex (Homo sapiens). Put plainly: Inhibition of NFkappaB in human FRT-Jurkat cells expressing GFP assessed as reduction of TNF expression at 100 uM after 24 hrs by flow cytometry relative to control.
The target is the same in data set [3]. Put plainly: Ratio of thalidomide to compound for inhibition of NFkappaB in human FRT-Jurkat cells expressing GFP assessed as reduction of TNF expression at 10 uM.

Results on 29 compounds are retold here after ChEMBL document CHEMBL3217613, “Novel thalidomide analogues with potent NFB and TNF expression inhibition” (Medchemcomm, 2011).

T1 sequence (P19838 whole entry, looked up): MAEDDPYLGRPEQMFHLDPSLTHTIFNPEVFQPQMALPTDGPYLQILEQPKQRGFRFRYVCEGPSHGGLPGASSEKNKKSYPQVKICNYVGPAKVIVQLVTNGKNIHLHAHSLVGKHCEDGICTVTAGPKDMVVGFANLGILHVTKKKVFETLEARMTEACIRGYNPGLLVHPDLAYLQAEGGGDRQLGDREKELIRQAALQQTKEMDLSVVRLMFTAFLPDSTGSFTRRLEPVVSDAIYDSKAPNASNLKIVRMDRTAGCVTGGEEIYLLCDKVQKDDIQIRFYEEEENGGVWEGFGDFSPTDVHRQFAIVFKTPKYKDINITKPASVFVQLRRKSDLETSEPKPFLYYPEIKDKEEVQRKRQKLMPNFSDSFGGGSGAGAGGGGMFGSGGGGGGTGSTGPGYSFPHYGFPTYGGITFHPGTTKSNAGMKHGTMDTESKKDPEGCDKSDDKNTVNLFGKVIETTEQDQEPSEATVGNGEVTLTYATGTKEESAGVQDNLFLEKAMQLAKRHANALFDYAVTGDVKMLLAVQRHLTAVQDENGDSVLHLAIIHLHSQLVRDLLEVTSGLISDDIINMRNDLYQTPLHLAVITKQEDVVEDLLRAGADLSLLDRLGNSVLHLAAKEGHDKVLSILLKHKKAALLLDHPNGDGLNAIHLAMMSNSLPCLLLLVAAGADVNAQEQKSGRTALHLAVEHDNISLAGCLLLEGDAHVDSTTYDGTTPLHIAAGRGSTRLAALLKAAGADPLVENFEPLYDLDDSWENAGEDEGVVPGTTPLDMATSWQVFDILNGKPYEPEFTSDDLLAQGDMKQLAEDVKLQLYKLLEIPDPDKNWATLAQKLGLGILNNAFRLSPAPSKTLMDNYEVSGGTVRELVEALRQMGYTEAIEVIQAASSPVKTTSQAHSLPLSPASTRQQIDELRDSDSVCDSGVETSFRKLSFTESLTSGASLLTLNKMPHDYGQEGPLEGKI
T1 sequence (Q00653 whole entry, looked up): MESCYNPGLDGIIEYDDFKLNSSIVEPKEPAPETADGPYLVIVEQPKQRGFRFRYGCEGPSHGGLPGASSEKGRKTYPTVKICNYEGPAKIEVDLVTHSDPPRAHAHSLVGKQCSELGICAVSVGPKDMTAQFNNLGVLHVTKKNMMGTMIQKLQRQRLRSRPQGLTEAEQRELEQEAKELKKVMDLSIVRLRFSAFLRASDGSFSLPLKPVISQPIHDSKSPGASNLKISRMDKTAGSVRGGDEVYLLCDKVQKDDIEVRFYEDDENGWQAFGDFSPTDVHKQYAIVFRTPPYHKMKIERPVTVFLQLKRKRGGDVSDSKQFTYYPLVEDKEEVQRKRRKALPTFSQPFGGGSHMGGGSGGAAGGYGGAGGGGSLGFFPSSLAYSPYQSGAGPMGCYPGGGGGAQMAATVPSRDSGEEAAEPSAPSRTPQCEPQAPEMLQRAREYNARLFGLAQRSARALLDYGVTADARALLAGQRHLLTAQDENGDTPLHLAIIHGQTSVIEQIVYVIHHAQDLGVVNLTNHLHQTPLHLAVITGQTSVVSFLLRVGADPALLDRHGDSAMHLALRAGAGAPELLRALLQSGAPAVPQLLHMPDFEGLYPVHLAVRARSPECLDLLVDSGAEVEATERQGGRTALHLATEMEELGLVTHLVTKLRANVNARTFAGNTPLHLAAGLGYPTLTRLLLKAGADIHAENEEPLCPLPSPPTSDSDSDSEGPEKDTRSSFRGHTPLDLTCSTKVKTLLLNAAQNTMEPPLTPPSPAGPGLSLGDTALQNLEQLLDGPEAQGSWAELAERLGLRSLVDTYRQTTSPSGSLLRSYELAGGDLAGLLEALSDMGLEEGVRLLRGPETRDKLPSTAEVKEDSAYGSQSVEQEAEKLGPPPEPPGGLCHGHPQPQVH
T1 sequence (Q04206 whole entry, looked up): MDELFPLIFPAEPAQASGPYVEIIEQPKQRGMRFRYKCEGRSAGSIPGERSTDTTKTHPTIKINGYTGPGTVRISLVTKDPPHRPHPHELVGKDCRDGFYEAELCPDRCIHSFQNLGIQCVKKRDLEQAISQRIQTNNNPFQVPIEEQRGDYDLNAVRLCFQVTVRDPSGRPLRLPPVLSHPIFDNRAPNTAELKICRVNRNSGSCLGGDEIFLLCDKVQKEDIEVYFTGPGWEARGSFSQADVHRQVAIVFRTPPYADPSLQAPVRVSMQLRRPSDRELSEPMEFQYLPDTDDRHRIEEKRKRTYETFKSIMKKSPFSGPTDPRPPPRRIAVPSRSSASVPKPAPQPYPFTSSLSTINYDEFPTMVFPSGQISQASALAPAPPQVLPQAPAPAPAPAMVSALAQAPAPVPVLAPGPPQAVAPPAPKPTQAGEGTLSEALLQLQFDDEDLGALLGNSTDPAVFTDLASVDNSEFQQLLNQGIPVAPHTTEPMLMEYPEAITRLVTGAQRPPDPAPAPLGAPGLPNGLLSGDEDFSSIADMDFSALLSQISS

In the case of `CCCCCc1ccc(Nc2cccc3c2C(=O)N(C2CCC(=O)NC2=O)C3=O)cc1` (configuration not stated), in data set [1], the inhibition turned out to be 23%. Moreover, the Activity in the data set on Jurkat came to 89%.

As to `CC(C)(C)c1ccc(Nc2cccc3c2C(=O)N(C2CCC(=O)NC2=O)C3=O)cc1` (configuration not stated), the inhibition in data set [1] was determined as 36%. In addition, the Activity in the data set on Jurkat is 89%.

In the case of `O=C1CCC(N2C(=O)c3cccc(Nc4ccc(O)cc4)c3C2=O)C(=O)N1` (configuration not stated), the inhibition in data set [1] was determined as 4%. The Activity in the data set with Jurkat is on record as 89%.

Turning to `CC(=O)c1ccc(Nc2cccc3c2C(=O)N(C2CCC(=O)NC2=O)C3=O)cc1` (configuration not stated), the inhibition in data set [1] turned out to be 2%. Moreover, the Activity in the data set with Jurkat came to 89%.

On to `O=C1CCC(N2C(=O)c3ccccc3C2=O)C(=O)N1` (racemic), for which the inhibition in data set [1] turned out to be 2%; in data set [2] it was 4%.

As for `Cc1ccc(Nc2ccc3c(c2)C(=O)N(C2CCC(=O)NC2=O)C3=O)cc1` (configuration not stated), in data set [1], the inhibition came out at 5%.

Take `Cc1ccc(Nc2cccc3c2C(=O)N(C2CCC(=O)NC2=O)C3=O)cc1` (configuration not stated): the inhibition in data set [1] worked out at 9%. In addition, in the data set with Jurkat, the Activity worked out at 89%.

In the case of `CCc1ccc(Nc2ccc3c(c2)C(=O)N(C2CCC(=O)NC2=O)C3=O)cc1` (configuration not stated), the inhibition in data set [1] is 5%.

`CCCc1ccc(Nc2ccc3c(c2)C(=O)N(C2CCC(=O)NC2=O)C3=O)cc1` (configuration not stated): the inhibition in data set [1] stood at 10%.

Consider `O=C1CCC(N2C(=O)c3cccc(Nc4ccccn4)c3C2=O)C(=O)N1` (configuration not stated), for which the inhibition in data set [1] is 1%. In addition, the Activity in the data set with Jurkat worked out at 89%.

For the compound `Cc1ccccc1Nc1cccc2c1C(=O)N(C1CCC(=O)NC1=O)C2=O` (configuration not stated), the inhibition in data set [1] turned out to be 7%. Besides, the Activity in the data set with Jurkat is recorded as 89%.

On to `CCOC(=O)c1ccc(Nc2cccc3c2C(=O)N(C2CCC(=O)NC2=O)C3=O)cc1` (configuration not stated), for which the inhibition in data set [1] amounted to 10%. In addition, the Activity in the data set on Jurkat was determined as 89%.

Regarding `CC(C)c1ccc(Nc2cccc3c2C(=O)N(C2CCC(=O)NC2=O)C3=O)cc1` (configuration not stated), the inhibition in data set [1] was determined as 19%. Further, in the data set with Jurkat, the Activity is given as 89%.

For `Cc1ccccc1Nc1ccc2c(c1)C(=O)N(C1CCC(=O)NC1=O)C2=O` (configuration not stated), the inhibition in data set [1] was found to be 2%.

Consider `O=C1CCC(N2C(=O)c3cccc(Nc4ccccc4)c3C2=O)C(=O)N1` (configuration not stated), for which the inhibition worked out at 4% in data set [1] and 16% in data set [2]. Further, the Activity in the data set on Jurkat was determined as 89%.

In the case of `O=C1CCC(N2C(=O)c3ccc(Nc4ccc(O)cc4)cc3C2=O)C(=O)N1` (configuration not stated), the inhibition in data set [1] came out at 4%.

Consider `CC(C)(C)c1ccc(Nc2ccc3c(c2)C(=O)N(C2CCC(=O)NC2=O)C3=O)cc1` (configuration not stated), for which the inhibition in data set [1] came to 17%.

As for `CCc1ccc(Nc2cccc3c2C(=O)N(C2CCC(=O)NC2=O)C3=O)cc1` (configuration not stated), the inhibition in data set [1] amounted to 17%. Besides, the Activity in the data set on Jurkat is reported as 89%.

Regarding `CCCCCc1ccc(Nc2ccc3c(c2)C(=O)N(C2CCC(=O)NC2=O)C3=O)cc1` (configuration not stated), the inhibition in data set [1] worked out at 12%.

Regarding `CCOC(=O)c1ccc(Nc2ccc3c(c2)C(=O)N(C2CCC(=O)NC2=O)C3=O)cc1` (configuration not stated), in data set [1], the inhibition came out at 5%.

Turning to `CC(=O)c1ccc(Nc2ccc3c(c2)C(=O)N(C2CCC(=O)NC2=O)C3=O)cc1` (configuration not stated), the inhibition in data set [1] is -2%.

Regarding `Nc1cccc2c1CN(C1CCC(=O)NC1=O)C2=O` (configuration not stated), the inhibition in data set [1] came to 4%; in data set [2] it was 6%.

In the case of `O=C1CCC(N2C(=O)c3ccc(Nc4ccccc4)cc3C2=O)C(=O)N1` (configuration not stated), the values for the inhibition in data set [1] and in data set [2] were 6% and 17%, respectively. In addition, in data set [3], the Ratio was 2.

For `COc1ccc(Nc2ccc3c(c2)C(=O)N(C2CCC(=O)NC2=O)C3=O)cc1` (configuration not stated), the inhibition in data set [1] turned out to be 29%.

Take `CN(c1ccccc1)c1ccc2c(c1)C(=O)N(C1CCC(=O)NC1=O)C2=O` (configuration not stated): the inhibition in data set [1] is -2%.

As to `COc1ccc(Nc2cccc3c2C(=O)N(C2CCC(=O)NC2=O)C3=O)cc1` (configuration not stated), the inhibition in data set [1] was found to be 13%. Moreover, in the data set with Jurkat, the Activity amounted to 89%.

In the case of `O=C1CCC(N2C(=O)c3ccc(Nc4ccccn4)cc3C2=O)C(=O)N1` (configuration not stated), the inhibition in data set [1] was determined as 9%.

As to `CC(C)c1ccc(Nc2ccc3c(c2)C(=O)N(C2CCC(=O)NC2=O)C3=O)cc1` (configuration not stated), the inhibition in data set [1] turned out to be 11%.

In the case of `CCCc1ccc(Nc2cccc3c2C(=O)N(C2CCC(=O)NC2=O)C3=O)cc1` (configuration not stated), the inhibition in data set [1] stood at 23%. Moreover, in the data set on Jurkat, the Activity stood at 89%.
